No end group written: not given here.

We go through one substance from paper PMC12992715, “Dual interference with host neuropeptide signaling allows parasitoid wasp to hijack host sugar metabolism” (The EMBO Journal, 2025).

One test concerns PxsNPFR. The test can be described thus: cAMP-Glo assay: inhibition of forskolin-induced cAMP accumulation in PxsNPFR-expressing HEK293 cells. It is filed as cell-based, Plutella xylostella.
The subject of test [1] is P. xylostella larvae. The test can be described thus: Circulating haemolymph trehalose after injection of synthetic sNPF peptides, venom, CvBV or teratocyte content. Type of test: in vivo, Plutella xylostella. The following applies: words. The protocol: Microinjections were performed under a Stemi 2000C microscope (Zeiss) using glass capillary injection needles and an Eppendorf Femtojet (Eppendorf) with a microcontroller (Narishige). To confirm the function of bovine insulin on hosts, 1 μg bovine insulin (Sigma-Aldrich, I0305000) was injected into the middle 3rd instar P. xylostella larvae. To identify the effect of each parasitic factor on hosts, 0.05 FE CvBV or 0.05 VRE venom was injected into the abdomen of the middle 3rd instar P. xylostella larva (Wang et al, [2018]; Yu et al, [2007]). 1 TE teratocytes’ content was microinjected into the early 4th instar P. xylostella larvae. To confirm the function of each synthetic sNPF peptide, 0.005 ng, 0.05 ng, or 0.5 ng of each peptide was injected into the middle 3rd instar P. xylostella larvae in a volume of 0.1 μl/per larva once per day for 3 consecutive days.
For P. xylostella larvae, 1 μl of haemolymph from the moth was diluted 60-fold in cold PBS and subjected to trehalose determination. The fat body of P. xylostella larvae was homogenised in 200 μl of cold PBS. Half of the homogenate was centrifuged at 13,000 rpm for 15 min, and the supernatant was used for protein content determination by Bradford Reagent (Invitrogen). The rest was heated at 70 °C for 5 min followed by centrifuging at 13,000 rpm for 15 min, and the supernatant was used for glycogen determination.
Trehalose content determination was performed by the anthrone sulfate method. 15 μL of the sample was incubated with 15 μL of 1% H2SO4 at 90 °C for 10 min, then 15 μL of 30% KOH was added and incubated at 90 °C for 10 min. Finally, 300 μl of 0.2% anthrone (Sigma-Aldrich) solution in 96% H2SO4 was added and incubated at 90 °C for 10 min. All reactions were stopped by immersion in ice. To create a trehalose standard curve, 15 μl of trehalose standards (Sigma-Aldrich) were treated similarly as a sample. Finally, 100 μl of each sample was added to a 96-well plate. The absorbance of samples was then measured at 630 nm on a SpectraMax® iD5 Multi-Mode Microplate Reader (Molecular Devices), and the trehalose levels were calculated based on the standard curve and normalised by protein content or sample volume.

In test [2] the test system is P. xylostella larvae. The test can be described thus: Feeding time and feeding interval time. The following applies: sPxsNPF-1-injected, middle 4th instar; words. Type of test: in vivo, Plutella xylostella. The text has this:
Appendix Figure S4. PxsNPF is mainly expressed in the CNS and midgut-trachea of the host as an appetite-suppressing hormone
(A) Relative mRNA levels of PxsNPF in different tissues of non-parasitized and C. vestalis-parasitized host larvae at late 3rd instar (n = 3). (B) Left: schematic diagram of the general composition and cell types of the midgut. EC, enterocyte; ISC, intestinal stem cell; EB, enteroblast; EE, enteroendocrine cell; BM, basement membrane; VM, visceral muscle. Right: PxsNPF (red) is expressed in the tracheae of the midgut (white arrowheads). Nuclei were labelled by DAPI (blue). NP: non-parasitized hosts, P: parasitized hosts. Scale bars, 200 μm. (C) Immunostaining of PxsNPF prepropeptide (red) in the whole midgut of non-parasitized and parasitized P. xylostella larvae at late 3rd-instar. White dashed boxes indicate areas magnified in Fig.
5E. Nuclei were labelled by DAPI (blue). Scale bar: 500 μm. (D) Feeding time (left, n = 40 for grey, n = 23 for blue, n = 54 for red, n = 29 for purple) and interval time (right, n = 35 for grey, n = 13 for blue, n = 33 for red, n = 25 for purple) of non-parasitized, C. vestalis-parasitized, and sPxsNPF-1-injected and sCvsNPF-injected P. xylostella larvae at middle 4th-instar during feeding behaviour. Data are represented as […]
Two-tailed unpaired Student’s t-test, except for (D) (One-way ANOVA and Tukey’s multiple comparison tests). […]

Description for PxsNPFR: Cells were treated with 10 μM forskolin and various concentrations of the indicated peptide for 15 min at 37 °C (n = 3). […] Data are represented as mean ± SEM. *P<0.05, **P< 0.01, ***P< 0.005, not shown P > 0.05. […] (A) Two-tailed unpaired Student’s t test; (B–H) one-way ANOVA and Tukey’s multiple comparison tests.
Measurement of cyclic AMP in the HEK293/PxsNPFR cell line was accomplished with the cAMP-Glo™ Assay (Promega) according to the manufacturer’s instructions. Cells were seeded into the 96-well tissue culture plate (Thermo) overnight to grow at a recommended cell density (2500-10,000 cells/well). For the assay, cells were washed three times with PBS and then stimulated with 10 μM forskolin (Beyotime, added with 500 μM IBMX, Sigma-Aldrich) alone or 10 μM forskolin (added with 500 μM IBMX) with the indicated concentrations of synthetic sNPF for 15 min at room temperature. To generate a cAMP standard curve, cAMP standards supplied with the kit were prepared in a separate 96-well. Chemiluminescent signals were measured for 1 s/well on a SpectraMax iD5 Multi-Mode Microplate Reader (Molecular Devices).

For the substance “SVRSPSRRLRF-NH2 [sPxsNPF-1, synthetic short neuropeptide F-1 of Plutella xylostella]”, the “inhibition of forskolin-stimulated cAMP accumulation” value with PxsNPFR (HEK293/PxsNPFR, 10 μM forskolin + 500 μM IBMX, 15 min, various peptide concentrations, result in words) is “an inhibitory effect was not observed”. The “G protein coupling of the peptide-PxsNPFR complex” value in the test on PxsNPFR (conclusion from cAMP and Ca2+ assays, words) is “regulates Gq protein-mediated signalling”. Further, the “effect on haemolymph trehalose level, dose dependence” value in the test on P. xylostella larvae [1] (0.005, 0.05, 0.5 ng per larva) is given as “dependent on the concentration”. Moreover, the “effect on haemolymph trehalose level” value in the test with P. xylostella larvae [1] (synthetic PxsNPFs, injected into 3M larvae, measured at 4M, high dosage 0.5 ng per larva, n = 4-6) is recorded as “increased the haemolymph trehalose level”. Further, in the test on P. xylostella larvae [2], the feeding interval time entry is “longer” and the feeding time result is “unaffected”.
